Experimental data from patent publication US9651566B2, “Method for determining the propensity for calcification” (Rheinisch-Westfälische Technische Hochschule Aachen, priority 2011, dated 2017).

How the values were obtained:
[1] = test system: transition of primary CPPs into secondary CPPs; test: Nephelometer assay in the presence of serum; type: biochemical, human; conditions: for transition rate of primary CPPs into secondary CPPs (T50): in the presence of the substance, cf. FIG. 2A
Description: Stock Solutions: 1. NaCl-solution: NaCl 140 mM, 2. Calcium solution: CaCl2 40 mM+Hepes 100 mM+NaCI 140 mM, pH adjusted with NaOH 10 mM to 7.40 at 37° C., 3. […] Na2HP04 19.44 mM+NaH2PO4 4.56 mM+Hepes 100 mM+NaCI 140 mM, pH adjusted with NaOH 10 mM to 7.40 at 37° C. […] These pipetting steps were performed in the following order: 1. NaCl-solution: 20 μl/well, 2. serum 80 μl/well, 3. shaking for 1 minute, 4. phosphate solution 50 μl/well, 5. shaking for 1 minute, 6. calcium solution 50 μl/well, shaking for 1 minute. Air bubbles in the wells were disintegrated with a pocket lighter and the 96-well covered with a […] adhesive sealing film for microplates. […] Assay conditions and Nephelostar® settings: measurement in a thermo constant room at 34.5° C. with the internal radiation of the device turned off. This led to an infernal measurement temperature of 36.5° C. to 37° C. The Nephelostar® was operated and controlled via the Nephelostar provider's Galaxy Software on a Windows Computer platform. The assay was performed with 200 cycles of 1.5 seconds measurement time per well and a position delay of 0.1 seconds in horizontal plate reading mode, adding up to a cycle time of 180 seconds/cycle for our Standard assay. This adds up to a total assay run time of 10 hours per assay. […] After completion of the run, data were transferred to Excel® and transposed from lines into columns. Data columns were copied into the GraphPad Prism® program to generate an XY-graph. Data were then processed by calculating nonlinear regression in the “log(agonist) vs. response-variable slope (four Parameters)” mode using the “robust fit” fitting method. The resulting values obtained for T50 and RNUT50 were further processed as required. We chose physiological conditions for temperature (37° C.) and pH (7.40 at 37° C.), and designed the assay for a final volume of 200 μl per well. These 200 μl consisted of 20 μl NaCl 140 mM, 80 μl serum, 50 μl phosphate 24 mM and 50 μl calcium 40 mM solution which were mixed in this order. […]

[2] = test system: transition of primary CPPs into secondary CPPs; test: Nephelometry in the absence of serum; type: biochemical; conditions: FIG. 6A

phosphate was tested, and the “transition rate of primary CPPs into secondary CPPs (T50)” value [1] was “accelerated”.

`[Mg+2]` [magnesium] was tested, and the “transition rate of primary CPPs into secondary CPPs (T50)” value [1] was “delayed”.

`O=S([O-])([O-])=S.[Na+].[Na+]` [sodium thiosulfate] was tested, and the “impact on the assay” value ([1]; spiked to serum in amounts of up to 40 mM) was “did not have any impact”.

B1: fetuin A: the strongest intrinsic serum calcification inhibitor (protein, UniProt P02765 19-300; P02765 341-367, looked up)
Alpha-2-HS-glycoprotein chain … 1: APHGPGLIYRQPNCDDPETEEAALVAIDYINQNLPWGYKHTLNQIDEVKVWPQQPSGELFEIEIDTLETTCHVLDPTPVARCSVRQLKEHAVEGDCDFQLLKLDGKFSVVYAKCDSSPDSAEDVRKVCQDCPLLAPLNDTRVVHAAKAALAAFNAQNNGSNFQLEEISRAQLVPLPPSTYVEFTVSGTDCVAKEATEAAKCNLLAEKQYGFCKATLSEKLGGAEVAVTCMVFQTQPVSSQPQPEGANEAVPTPVVDPDAPPSPPLGAPGLPPAGSPPDSHVL
Alpha-2-HS-glycoprotein chain … 2: TVVQPSVGAAAGPVVPPCPGRIRHFKV
For B1, the “influence on the assay (spiked serum components)” value [2] was “significantly influences the assay”.
